Experimental data: US6841519B1, “Isoxazoline derivatives and herbicides containing the same as the active ingredient” (Kumiai Chemical Industry Co., Ltd., priority 1999, dated 2005)

Key:
[1] = system: Echinochloa oryzicola Vasing. (Eo); assay: Test for herbicidal effect by paddy field soil treatment (Test Example 1); format: in vivo; details: application amount (active ingredient) 100 g/10 a, examined at the 21st day from the treatment, index per Table 40
Outline: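 Scored on a standard scale at day 21 in the greenhouse: herbicidal effect of wettable powder applied to flooded water (3 cm depth) at 100 g a.i./10 ares, one day after sowing Eo into puddled paddy soil.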

[2] = system: Echinochloa crus-galli (L.) Beauv. var. crusgall (Ec); assay: Test for herbicidal effect by upland field soil treatment (Test Example 2), Ec; format: in vivo
Outline: (§1)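 Pre-emergence soil treatment: wettable powder diluted in water and sprayed on soil just sown with Ec and Se seeds, delivering 100 g active ingredient per 10 ares in 100 liters per 10 ares. Herbicidal effect was rated against a fixed scale 21 days later, after greenhouse growth.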

[3] = system: Setaria viridis (L.) Beauv. (Se); assay: Test for herbicidal effect by upland field soil treatment (Test Example 2), Se; format: in vivo
Outline: as §1

[4] = system: Echinochloa crus-galli (L.) Beauv. var. crusgalli (Ec); assay: Test for herbicidal effect by upland foliage treatment (Test Example 3); format: in vivo; details: 100 g/10 a active ingredient, examined at 14th day
Outline: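 Scored 14 days post-spray against a graded standard: greenhouse-grown Ec, 2 weeks old in upland soil, received whole-foliage application of diluted wettable powder (100 g active ingredient per 10 ares, spray volume 100 L per 10 ares).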

[5] = system: Monochoria vaginalis Presl (Mo); assay: Test for herbicidal effect during breeding period by paddy field water treatment (Test Example 5), Mo; format: in vivo; details: paddy field water treatment at 1-leaf stage, 25 g/10 a active ingredient, 30th day
Method: (§2) [table] <Test Example 5> Test For Herbicidal Effect During Breeding Period By Paddy Field Water Treatment A paddy field soil was filled in a plastic pot of 100 cm^2 and subjected to puddling. Seeds of Monochoria vaginalis Presl (Mo) and Scirpus juncoides Roxb. subsp. juncoides Roxb. (Sc) were sowed; water was filled in a depth of 3 cm; and breeding was made. When Mo reached a 1-leaf stage and Sc reached a 2-leaf stage, wettable powders produced in accordance with the Formulation 1 were diluted with water and dropped on the water surface. […] Then, breeding was made in a greenhouse. At the 30th day from the treatment, the herbicidal effect of each wettable powder was examined in accordance with the standard shown in Table 40.

[6] = system: Scirpus juncoides Roxb. subsp. juncoides Roxb. (Sc); assay: Test for herbicidal effect during breeding period by paddy field water treatment (Test Example 5), Sc; format: in vivo; details: paddy field water treatment at 2-leaf stage, 25 g/10 a active ingredient, 30th day
Method: as §2

[7] = system: Polygonum lapathifolium L. subsp. nodosum (Pers.) Kitam. (Po); assay: Test for herbicidal effect to broadleaf weeds by upland field soil treatment (Test Example 6), Po; format: in vivo; details: 25 g/10 a active ingredient, 30th day
Method: (§3) Test for herbicidal effect to broadleaf weeds by upland field soil treatment
(§4) An upland field soil was filled in a plastic pot of 80 cm^2. Seeds of Polygonum lapathifolium L. subsp. nodosum (Pers.) Kitam. (Po) and Chenopodium album L. (Ch) were sowed, followed by covering with the same soil. Wettable powders produced in accordance with the Formulation 1 were diluted with water and sprayed uniformly on the soil surface using a small sprayer, […] Then, breeding was made in a greenhouse. At the 30th day from the treatment, the herbicidal effect of each wettable powder was examined in accordance with the standard shown in Table 40.

[8] = system: Chenopodium album L. (Ch); assay: Test for herbicidal effect to broadleaf weeds by upland field soil treatment (Test Example 6), Ch; format: in vivo; details: 25 g/10 a active ingredient, 30th day
Method: as §3, §4

[9] = application amount (active ingredient) 100 g/10 a, examined at the 21st day from the treatment, index per Table 40
[10] = 100 g/10 a active ingredient, examined at 21st day

CC1(C)CC(SCc2c(F)cccc2F)=NO1 [Compound 1-38, 3-(2,6-difluorobenzylthio)-5,5-dimethyl-2-isoxazoline]
Herbicidal effect to Eo [1]: 5 (A herbicidal effect or phytotoxicity of 90% or more) | Herbicidal effect to Ec [2, 9]: 4 (A herbicidal effect or phytotoxicity of 70% to less than 90%) | Herbicidal effect to Se [3, 9]: 4 (A herbicidal effect or phytotoxicity of 70% to less than 90%) | melting point: 77 to 80 °C

CC1(C)CC(S(=O)(=O)Cc2c(F)cccc2F)=NO1 [Compound 1-39, 3-(2,6-difluorobenzylsulfonyl)-5,5-dimethyl-2-isoxazoline]
Herbicidal effect to Eo [1]: 5 (A herbicidal effect or phytotoxicity of 90% or more) | Herbicidal effect to Ec [2, 9]: 5 (A herbicidal effect or phytotoxicity of 90% or more) | Herbicidal effect to Se [3, 9]: 5 (A herbicidal effect or phytotoxicity of 90% or more) | Herbicidal effect to Ec [4]: 5 (A herbicidal effect or phytotoxicity of 90% or more) | Herbicidal effect to Mo [5]: 5 (A herbicidal effect or phytotoxicity of 90% or more) | Herbicidal effect to Sc [6]: 5 (A herbicidal effect or phytotoxicity of 90% or more) | Herbicidal effect to Po [7]: 4 (A herbicidal effect or phytotoxicity of 70% to less than 90%) | Herbicidal effect to Ch [8]: 5 (A herbicidal effect or phytotoxicity of 90% or more)

CC1(C)CC(S(=O)(=O)Cc2ccccc2OC(F)(F)F)=NO1 [Compound 1-58]
Herbicidal effect to Eo [1]: 5 (A herbicidal effect or phytotoxicity of 90% or more) | Herbicidal effect to Ec [2, 9]: 5 (A herbicidal effect or phytotoxicity of 90% or more) | Herbicidal effect to Se [3, 9]: 5 (A herbicidal effect or phytotoxicity of 90% or more) | Herbicidal effect to Ec [4]: 5 (A herbicidal effect or phytotoxicity of 90% or more) | Herbicidal effect to Mo [5]: 4 (A herbicidal effect or phytotoxicity of 70% to less than 90%) | Herbicidal effect to Sc [6]: 5 (A herbicidal effect or phytotoxicity of 90% or more)

CC1(C)CC(S(=O)(=O)Cc2ccccc2C(F)(F)F)=NO1 [Compound 1-157]
Herbicidal effect to Eo [1]: 5 (A herbicidal effect or phytotoxicity of 90% or more) | Herbicidal effect to Ec [2, 9]: 5 (A herbicidal effect or phytotoxicity of 90% or more) | Herbicidal effect to Se [3, 9]: 5 (A herbicidal effect or phytotoxicity of 90% or more) | Herbicidal effect to Ec [4]: 5 (A herbicidal effect or phytotoxicity of 90% or more) | Herbicidal effect to Mo [5]: 5 (A herbicidal effect or phytotoxicity of 90% or more) | Herbicidal effect to Sc [6]: 5 (A herbicidal effect or phytotoxicity of 90% or more)

Cc1cc(C)c(C)c(CS(=O)(=O)C2=NOC(C)(C)C2)c1C [Compound 1-547]
Herbicidal effect to Eo [1]: 5 (A herbicidal effect or phytotoxicity of 90% or more) | Herbicidal effect to Ec [2, 10]: 5 (A herbicidal effect or phytotoxicity of 90% or more) | Herbicidal effect to Se [3, 10]: 5 (A herbicidal effect or phytotoxicity of 90% or more) | Herbicidal effect to Ec [4]: 5 (A herbicidal effect or phytotoxicity of 90% or more) | Herbicidal effect to Mo [5]: 5 (A herbicidal effect or phytotoxicity of 90% or more) | Herbicidal effect to Sc [6]: 5 (A herbicidal effect or phytotoxicity of 90% or more)

CC1(C)CC(S(=O)(=O)Cc2c(Cl)cccc2OCC(F)(F)F)=NO1 [Compound 1-567]
Herbicidal effect to Eo [1]: 5 (A herbicidal effect or phytotoxicity of 90% or more) | Herbicidal effect to Ec [2, 10]: 5 (A herbicidal effect or phytotoxicity of 90% or more) | Herbicidal effect to Se [3, 10]: 5 (A herbicidal effect or phytotoxicity of 90% or more) | Herbicidal effect to Ec [4]: 4 (A herbicidal effect or phytotoxicity of 70% to less than 90%) | Herbicidal effect to Mo [5]: 5 (A herbicidal effect or phytotoxicity of 90% or more) | Herbicidal effect to Sc [6]: 5 (A herbicidal effect or phytotoxicity of 90% or more)

CC1(C)CC(S(C)(=O)=O)=NO1 [Compound 2-1, 3-methylsulfonyl-5,5-dimethyl-2-isoxazoline]
melting point: 82 to 84 °C
